Assay results reported in ChEMBL document CHEMBL4393679, “Structure-Guided Drug Design of 6-Substituted Adenosine Analogues as Potent Inhibitors of Mycobacterium tuberculosis Adenosine Kinase” (J Med Chem, 2019).

Experiments:
Type in all cases: functional
[1] = tested on: Mycobacterium tuberculosis; assay: Antimycobacterial activity against Mycobacterium tuberculosis H37Rv harboring Q172P mutant by microplate alamar blue assay
[2] = tested on: Mycobacterium tuberculosis; assay: Antimycobacterial activity against Mycobacterium tuberculosis H37Rv harboring D251N mutant by microplate alamar blue assay
[3] = tested on: Mycobacterium tuberculosis; assay: Antimycobacterial activity against Mycobacterium tuberculosis H37Rv harboring G262S mutant by microplate alamar blue assay

Measured: MIC

Nc1ncnc2c1c(I)cn2[C@@H]1O[C@H](CO)[C@@H](O)[C@H]1O [IODOTUBERCIDIN]
>100 µM: all assays above
